From US7344727B2, “Process for cleaning bovine teats” (H&S Chemical Company, Inc., priority 2002, dated 2008)

Key:
[1] = tested on: bacteria on the udder and teat areas; experiment: sanitizing the udder and teat areas with a solution of TCM; format: in vivo
From the text: This invention relates to the use of trichloromelamine as an active agent for sanitizing the udder and teat areas of cows. Like bleach TCM produces the Cl+ ion which is capable of killing a wide spectrum of bacteria. […] Solutions of sodium hypochlorite are generally not suitable for use on living tissue. […] The process of this invention is effected by spraying the udder and teat areas of a bovine with a solution of TCM. The process may be further effected by dipping the udder and teat areas in a solution of TCM. The process of this invention effectively kills all bacteria as may be on the udder and teat areas of a bovine in less than one minute.

[2] = bovine, in vivo
From the text: This invention relates to the use of trichloromelamine as an active agent for sanitizing the udder and teat areas of cows. Like bleach TCM produces the Cl+ ion which is capable of killing a wide spectrum of bacteria. […] Solutions of sodium hypochlorite are generally not suitable for use on living tissue.

Substance: trichloromelamine [TCM]
- residual effect on the udder and teat areas ([1]; residual TCM left after treatment): inhibits future bacterial contamination
- time to kill the troublesome bacteria ([1]; soft living tissue treated in accordance with the invention): killed in a matter of seconds
- effect on treated living tissue [2]: not adversely affected
